Structures can show the parent of a compound that is named as a salt.
Assays:
[1] = Example 13 trial: total and free bupivacaine plasma pharmacokinetics; details: human, in vivo
Description: Additionally, alpha 1 acid glycoprotein (AAG) plasma concentrations were measured in these two groups for correlation with free bupivacaine concentrations.
Using non-compartmental methods the following PK parameters were calculated from the plasma concentrations of each compound: area under the plasma concentration vs. time curve until the last measured concentration (AUCt), area under the plasma concentration vs. time curve extrapolated until infinity (AUCinf), the maximum concentration (Cmax), the time of its occurrence (tmax) and the apparent terminal elimination half-life (t1/2). […] The average […] of bupivacaine was approximately […]; free bupivacaine plasma concentrations generally paralleled those of total bupivacaine. There was a large interindividual variability of Cmax of both total and free bupivacaine. […] Note: Table 13.5 presents Geometric mean, ±68th percentile for Cmax rather than absolute min, max.

[2] = system: patients undergoing elective arthroscopic shoulder surgery; experiment: Example 13 trial: safety; assay type: in vivo, human; details: safety population
Source text: Pharmacokinetic/pharmacodynamic (PK/PD) relationships were to be assessed as part of central nervous system (CNS) toxicity monitoring and cardiac monitoring. For patients not selected for PK-profiling, if a cardiac or CNS event occurred that met the criteria for a serious adverse event (SAE) or a severe non-SAE, a blood sample for PK analysis was to be taken as close to the event as possible.
The incidence of adverse events (AEs); the incidence of bupivacaine-related CNS side effects; clinical laboratory tests; vital signs; 12-lead ECGs; and physical examinations.
Evaluation by the investigator of wound healing and tissue conditions at the surgical wound on Days 7 and 14, and at the 6-month follow-up visit. An MRI of the shoulder as well as a functionality assessment of the shoulder using the Constant-Murley score were to be performed at the 6-month follow-up visit.

**Q.** Which Tmax [1] does the source give for CCCCN1CCCCC1C(=O)Nc1c(C)cccc1C (stereo not shown) [bupivacaine HCl, bupivacaine hydrochloride] here?
**A.** 1.03 h

**Q.** And the “t1/2, mean” value [1]?
**A.** 6.65 h

**Q.** And the tmax median [1]?
**A.** 1.03 h

**Q.** What about the half-life ([1]; t1/2, mean) of the same molecule?
**A.** 5.93 h

**Q.** What about the “All TEAEs, % of patients” value [2] of the same molecule?
**A.** 37.9%

**Q.** What about the “All TEAEs, n (patients with at least one event)” value [2] of the same molecule?
**A.** 11

**Q.** What about the “TEAE Alanine aminotransferase increased, % of patients” value [2] of the same molecule?
**A.** 0.0%

**Q.** What about the “TEAE Cardiac disorders, % of patients” value [2] of the same molecule?
**A.** 10.3%

**Q.** And the “TEAE Gastrointestinal disorders, % of patients” value [2]?
**A.** 3.4%

**Q.** And the “TEAE General disorders and administration site conditions, % of patients” value [2]?
**A.** 0.0%

**Q.** What about the “TEAE Headache, % of patients” value [2] of the same molecule?
**A.** 3.4%

**Q.** What about the “TEAE Injury, poisoning and procedural complications, % of patients” value [2] of the same molecule?
**A.** 0.0%

**Q.** And the “TEAE Investigations, % of patients” value [2]?
**A.** 6.9%

**Q.** What about the “TEAE Musculoskeletal and connective tissue disorders, % of patients” value [2] of the same molecule?
**A.** 6.9%

**Q.** What about the “TEAE Musculoskeletal pain, % of patients” value [2] of the same molecule?
**A.** 6.9%

**Q.** What about the “TEAE Nausea, % of patients” value [2] of the same molecule?
**A.** 3.4%

**Q.** What about the “TEAE Nervous system disorders, % of patients” value [2] of the same molecule?
**A.** 13.8%

**Q.** And the “TEAE Respiratory, thoracic and mediastinal disorders, % of patients” value [2]?
**A.** 6.9%

**Q.** What about the “TEAE Skin and subcutaneous tissue disorders, % of patients” value [2] of the same molecule?
**A.** 6.9%

Reference: patent US11400019B2, “Sustained release drug delivery systems with reduced impurities and related methods” (DURECT CORPORATION, priority 2020, dated 2022)
